Common to all, as to experiment: inhibition of tumour cell growth, NCI panel, 48 h
Assay [1] relates to SNB-19 CNS.
Assay [2] has as its system ACHN renal.
The test system of assay [3] is IGROV1 ovarian.
The test system of assay [4] is MDA-MB-435.
The test system of assay [5] is HCT-116 colon.
Assay [6] deals with HCT-15 colon.
Assay [7] deals with NCI-H226 lung.
Assay [8] deals with HT29 colon.
In assay [9] the test system is BT-549 breast.
Assay [10] has as its system MOLT-4 leukemia.

The structures appear in SMILES notation.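 48-hour exposure; five concentrations; linearly interpolated endpoints. The concentration for 50% growth inhibition is given as GI50. TGI denotes the concentration required for complete inhibition of growth.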

On to `Cc1ccc(-n2c3c(c4c(CN5CCOCC5)c(O)ccc42)CCc2ccccc2C3=O)cc1`, for which the GI50 in assay [1] is more than 100 µM; in assay [2], more than 100 µM; in assay [3] it was 23.3 µM; in assay [4] it was 29.6 µM; in assay [5], more than 100 µM; in [6] it was more than 100 µM. Also, the GI50 is 78.1 µM in assay [7], 33.8 µM in assay [9] and 35.1 µM in assay [10]. Moreover, the TGI in assay [1], in [2], in assay [3], in assay [4], in assay [5] and in [6] was more than 100 µM each time. Moreover, the TGI in assay [7] is more than 100 µM; in [8], 0.241 µM; in assay [9], more than 100 µM; in [10], more than 100 µM.
As to `O=C(O)C1C2C=CC(O2)C1C(=O)Nc1ncccn1` (centres undefined), the TGI in assay [1], in assay [2], in assay [3], in assay [4], in assay [5] and in [6] was more than 100 µM throughout. For the same compound, the TGI in assay [7], in assay [8], in [9] and in assay [10] was more than 100 µM in each case.
As for `Fc1c[c-]c(-c2ccccn2)c(F)c1.[CH3-].[Pt+2].c1ccc(P(C[PH+](c2ccccc2)c2ccccc2)c2ccccc2)cc1`, the GI50 is 0.403 µM in [1]; 0.792 µM in assay [2]; 0.47 µM in assay [3]; 0.795 µM in [4]; 0.494 µM in assay [5]; 0.975 µM in assay [6]. Besides, the GI50 in [7] is 0.559 µM; in assay [8], 0.5 µM; in assay [9] it was 0.492 µM; in assay [10], 0.825 µM. Also, the TGI in assay [1] stood at 1.32 µM; in assay [2], 1.49 µM; in assay [3], 1.86 µM; in assay [4] it was 2.08 µM; in assay [5] it was 1.29 µM; in assay [6] it was 2.25 µM. Further, the TGI was 2.09 µM in assay [7], 3.73 µM in [8], 1.49 µM in assay [9] and 5.81 µM in assay [10].
`C=CC(=O)Nc1cccc(Nc2nc(Nc3ccc(OCCOC(F)F)cc3)ncc2F)c1`: the GI50 is 5.6 µM in assay [1]; 1.35 µM in assay [2]; 1.88 µM in [3]; 2.21 µM in assay [4]; 2.69 µM in [5]; 1.97 µM in assay [6]. Further, the GI50 is 0.52 µM in [7], 2.67 µM in [8], 1.36 µM in assay [9] and 3.73 µM in assay [10]. The TGI in [1] was more than 100 µM; in [2], 10.4 µM; in assay [3] it was 9.61 µM; in [4], 7.22 µM; in assay [5] it was 20 µM; in [6], more than 100 µM. Also, the TGI in assay [7] was 11.2 µM; in assay [8], 13.5 µM; in [9], 11.6 µM; in assay [10], more than 100 µM.
Consider `c1ccc(CC(NCCNC(Cc2ccccc2)c2ccccc2)c2ccccc2)cc1` (centres undefined), for which the GI50 is 0.964 µM in assay [1]; 0.585 µM in assay [2]; 0.605 µM in assay [3]; 0.817 µM in assay [4]; 0.2 µM in [5]; 0.463 µM in assay [6]. The GI50 in assay [7] is 1.12 µM; in assay [8] it was 0.227 µM; in assay [9] it was 1.26 µM; in [10] it was 0.306 µM. The TGI in [1] worked out at 4.15 µM; in assay [2], 2.49 µM; in assay [3], 2.84 µM; in [4], 2.22 µM; in assay [5], 0.486 µM; in assay [6] it was 1.64 µM. Also, the TGI in assay [7] is 2.79 µM; in [8], 0.567 µM; in assay [9], 3 µM; in [10], 0.959 µM.
